Data reported in patent US20260335451A1, “SOLID ORAL DOSAGE FORMS OF ESTROGEN RECEPTOR DEGRADERS” (Arvinas Operations, Inc., priority 2023, published 2026).

Legend:
[1] = Preclinical exposure of epimer Compound B vs Compound A; format: in vivo; conditions: preclinical data; epimer formed by interconversion of Compound A
ER = molecular target: T1, ER (Homo sapiens, UniProt P03372); assay: ER degradation; conditions: evidence in words
T1 construct: PROTAC recruits cereblon (CRBN) E3 ligase
T1 sequence (P03372 1-595): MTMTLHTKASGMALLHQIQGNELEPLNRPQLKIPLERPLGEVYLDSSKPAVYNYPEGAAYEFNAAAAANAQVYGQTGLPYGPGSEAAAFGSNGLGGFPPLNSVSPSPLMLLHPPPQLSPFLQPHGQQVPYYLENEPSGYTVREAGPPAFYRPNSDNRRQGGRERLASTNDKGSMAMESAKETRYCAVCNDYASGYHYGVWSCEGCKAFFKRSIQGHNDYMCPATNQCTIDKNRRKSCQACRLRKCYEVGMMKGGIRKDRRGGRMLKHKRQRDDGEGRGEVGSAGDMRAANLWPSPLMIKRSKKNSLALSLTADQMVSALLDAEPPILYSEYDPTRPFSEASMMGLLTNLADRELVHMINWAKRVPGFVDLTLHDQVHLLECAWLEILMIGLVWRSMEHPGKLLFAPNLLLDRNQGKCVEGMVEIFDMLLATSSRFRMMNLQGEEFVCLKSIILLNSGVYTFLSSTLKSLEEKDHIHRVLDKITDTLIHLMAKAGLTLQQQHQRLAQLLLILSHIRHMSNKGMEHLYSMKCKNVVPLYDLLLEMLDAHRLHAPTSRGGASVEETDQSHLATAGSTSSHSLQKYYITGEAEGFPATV

[2] = Biopharmaceutics Classification System class; format: physicochemical

exposure of Compound B compared to Compound A [1] [%]	ER degradation (ER)	permeability (in words, BCS) [2]	solubility (in words, BCS) [2]	Compound
< 26	does not degrade the ER	–	–	O=C1CC[C@@H](N2Cc3cc(N4CCN(CC5CCN(c6ccc([C@@H]7c8ccc(O)cc8CC[C@@H]7c7ccccc7)cc6)CC5)CC4)ccc3C2=O)C(=O)N1 [Compound B]
–	–	low permeability	low solubility	O=C1CC[C@H](N2Cc3cc(N4CCN(CC5CCN(c6ccc([C@@H]7c8ccc(O)cc8CC[C@@H]7c7ccccc7)cc6)CC5)CC4)ccc3C2=O)C(=O)N1 [Compound A, (S)-3-(5-(4-((1-(4-((1R,2S)-6-hydroxy-2-phenyl-1,2,3,4-tetrahydronaphthalen-1-yl)phenyl)piperidin-4-yl)methyl)piperazin-1-yl)-1-oxoisoindolin-2-yl)piperidine-2,6-dione]
